Measured values as given in patent US20250380702A1, “HERBICIDAL MIXTURES COMPRISING L-GLUFOSINATE OR ITS SALT AND A SECOND HERBICIDE” (BASF SE, priority 2022, published 2025).
Several values for one entry are separate records, joined by “and”; a condition that tells them apart may be missing. Identical values can stand only once. Like-named read-outs stand apart in the source and are kept apart here.

What was measured:
Assay in all cases: Greenhouse post emergence treatment, herbicidal activity
Volunteer HORVS = assay type: in vivo, Volunteer Barley; conditions: for % activity: solo application, post emergence
Source text: (§1) Synergism can be described as an interaction where the combined effect of two or more compounds is greater than the sum of the individual effects of each of the compounds. The presence of a synergistic effect in terms of percent control, between two mixing partners (X and Y) can be calculated using the Colby equation (Colby, S. R., 1967, Calculating Synergistic and Antagonistic Responses in Herbicide Combinations, Weeds, 15, 21-22):
(§2) When the observed combined control effect is greater than the expected (calculated) combined control effect (E), then the combined effect is synergistic.
(§3) The culture containers used were plastic flowerpots containing loamy sand with approximately 3.0% of humus as the substrate. The seeds of the test plants were sown separately for each species and/or resistant biotype. For the pre-emergence treatment, the active ingredients, which had been suspended or emulsified in water, were applied directly after sowing by means of finely distributing nozzles. The containers were irrigated gently to promote germination and growth and subsequently covered with transparent plastic hoods until the plants had rooted. This cover caused uniform germination of the test plants, unless this had been impaired by the active ingredients. For the post-emergence treatment, the test plants were first grown to a height of 3 to 15 cm, depending on the plant habit, and only then treated with the active ingredients which had been suspended or emulsified in water. For this purpose, the test plants were either sown directly and grown in the same containers, or they were first grown separately as seedlings and transplanted into the test containers a few days prior to treatment. Depending on the species, the plants were kept at 10-25° C. or 20-35° C., respectively. The test period extended to 20 days after treatment. During this time, the plants were tended, and their response to the individual treatments was evaluated. The evaluation was carried out by using a scale from 0 to 100. 100 means no emergence of the plants or complete destruction of at least the above-ground parts, and 0 means no damage, or normal course of growth.
(§4) As indicated in the respective examples, assessment was either after 7 days or 20 days after treatment (DAT).

AVEFA = assay type: in vivo, Avena fatua; conditions: solo application, 7 DAT
Source text: as §1, §2, §3, §4

POLAV = assay type: in vivo, Polygonum aviculare; conditions: solo application, 7 DAT
Source text: as §1, §2, §3, §4

CHEAL = assay type: in vivo, Chenopodium album; conditions: solo application, 7 DAT
Source text: as §1, §2, §3, §4

KCHSC = assay type: in vivo, Bassia scoparia; conditions: for % activity: solo application, post emergence, 7 DAT
Source text: as §1, §2, §3, §4

ABUTH = assay type: in vivo, Abutilon theophrasti; conditions: solo application; for inhibition at 250 g/ha: Abutilon theophrasti, 250 gai/ha
Source text: as §1, §2, §3, §4

[1] = Bassia scoparia, post-emergence, 168 h, read-out: % activity

CN1C[C@H](c2cccc(C(F)(F)F)c2)[C@@H](C(=O)Nc2ccccc2F)C1=O [Tetflupyrolimet]
% activity (Volunteer HORVS; 12.5 gai/ha, 7 DAT): 0%
% activity (Volunteer HORVS; 12.5 gai/ha, 20 DAT): 5% and 0%
% activity (Volunteer HORVS; 25 gai/ha, 7 DAT): 0%
% activity (Volunteer HORVS; 25 gai/ha, 20 DAT): 5%
% activity (Volunteer HORVS; 50 gai/ha, 7 DAT): 0%
% activity (Volunteer HORVS; 50 gai/ha, 20 DAT): 5%
% activity (Volunteer HORVS; 100 gai/ha, 7 DAT): 5%
% activity (AVEFA; 50 gai/ha): 0%
% activity (AVEFA; 100 gai/ha): 0%
% activity (POLAV; 50 gai/ha): 5%
% activity (POLAV; 100 gai/ha): 5%
% activity (CHEAL; 50 gai/ha): 15%
% activity (CHEAL; 100 gai/ha): 25%
% activity (KCHSC; 25 gai/ha): 0%
% activity (KCHSC; 50 gai/ha): 0%
% activity (KCHSC; 100 gai/ha): 2.5%
% activity (ABUTH; 25 gai/ha, 7 DAT): 0%
% activity (ABUTH; 25 gai/ha, 20 DAT): 0%
% activity (ABUTH; 100 gai/ha, 7 DAT): 0%
% activity (ABUTH; 100 gai/ha, 20 DAT): 0%

CP(=O)(O)CC[C@H](N)C(=O)O.N [L-Glu, ammonium (2S)-2-amino-4-(methylphosphinato) butyric acid]
inhibition at 125 g/ha (Volunteer HORVS; Hordeum vulgare, post-emergence, 168 h, read-out: % activity, solo application, 125 gai/ha, post emergence, 7 DAT): 90%
inhibition at 250 g/ha (Volunteer HORVS; Hordeum vulgare, post-emergence, 168 h, read-out: % activity, solo application, 250 gai/ha, post emergence, 7 DAT): 90%
inhibition at 500 g/ha (Volunteer HORVS; Hordeum vulgare, post-emergence, 168 h, read-out: % activity, solo application, 500 gai/ha, post emergence, 7 DAT): 95%
inhibition at 250 g/ha (Volunteer HORVS; Hordeum vulgare, post-emergence, 480 h, read-out: % activity, solo application, 250 gai/ha, post emergence, 20 DAT): 75%
inhibition at 500 g/ha (Volunteer HORVS; Hordeum vulgare, post-emergence, 480 h, read-out: % activity, solo application, 500 gai/ha, post emergence, 20 DAT): 85%
% activity (Volunteer HORVS; 125 gai/ha, 20 DAT): 65% and 35%
inhibition at 500 g/ha (AVEFA; Avena fatua, 168 h, 500 gai/ha): 90%
inhibition at 1000 g/ha (AVEFA; Avena fatua, 168 h, 1000 gai/ha): 90%
inhibition at 500 g/ha (POLAV; Polygonum aviculare, 168 h, 500 gai/ha): 95%
inhibition at 1000 g/ha (POLAV; Polygonum aviculare, 168 h, 1000 gai/ha): 95%
inhibition at 500 g/ha (CHEAL; Chenopodium album, 168 h, 500 gai/ha): 95%
inhibition at 1000 g/ha (CHEAL; Chenopodium album, 168 h, 1000 gai/ha): 95%
inhibition at 250 g/ha (KCHSC; [1]): 88%
inhibition at 500 g/ha (KCHSC; [1]): 88%
inhibition at 1000 g/ha (KCHSC; [1]): 90%
inhibition at 250 g/ha (ABUTH; 168 h, 7 DAT): 75%
inhibition at 250 g/ha (ABUTH; 480 h, 20 DAT): 60%
